In publication PMC2798750, “Caenorhabditis elegans N-glycan Core β-galactoside Confers Sensitivity towards Nematotoxic Fungal Galectin CGL2” (PLoS Pathogens, 2010):
pKd: −log10 of the molar value.

Biological target: CGL2 (Coprinopsis cinerea, UniProt Q9P4R8)
Experiment: biochemical

CGL2, sequence (Q9P4R8 whole entry, looked up): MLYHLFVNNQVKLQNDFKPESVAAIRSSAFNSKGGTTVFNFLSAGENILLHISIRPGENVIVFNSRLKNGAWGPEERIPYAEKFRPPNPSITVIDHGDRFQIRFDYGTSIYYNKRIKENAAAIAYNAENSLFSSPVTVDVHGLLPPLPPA

`CC(=O)N[C@H]1[C@H](OCCCCCN)O[C@H](CO[C@@H]2O[C@@H](C)[C@@H](O[C@@H]3O[C@H](CO)[C@H](O)[C@H](O)[C@H]3O)[C@@H](O)[C@@H]2O)[C@@H](O)[C@@H]1O` [Galβ1,4Fucα1,6GlcNAcβOC5H10NH2] was tested, and the pKd was about 4.00.
